Test [1] has as its target T1, TLR7 (Homo sapiens, UniProt Q9NYK1).
T1 construct: Human peripheral blood mononuclear cells (PBMCs) consist of lymphocytes, monocytes and dendritic cells that express TLR7, TLR8 and TLR9; endogenous in cells; host or cells: cryopreserved human PBMCs from healthy donors
T1 sequence (Q9NYK1 27-1049): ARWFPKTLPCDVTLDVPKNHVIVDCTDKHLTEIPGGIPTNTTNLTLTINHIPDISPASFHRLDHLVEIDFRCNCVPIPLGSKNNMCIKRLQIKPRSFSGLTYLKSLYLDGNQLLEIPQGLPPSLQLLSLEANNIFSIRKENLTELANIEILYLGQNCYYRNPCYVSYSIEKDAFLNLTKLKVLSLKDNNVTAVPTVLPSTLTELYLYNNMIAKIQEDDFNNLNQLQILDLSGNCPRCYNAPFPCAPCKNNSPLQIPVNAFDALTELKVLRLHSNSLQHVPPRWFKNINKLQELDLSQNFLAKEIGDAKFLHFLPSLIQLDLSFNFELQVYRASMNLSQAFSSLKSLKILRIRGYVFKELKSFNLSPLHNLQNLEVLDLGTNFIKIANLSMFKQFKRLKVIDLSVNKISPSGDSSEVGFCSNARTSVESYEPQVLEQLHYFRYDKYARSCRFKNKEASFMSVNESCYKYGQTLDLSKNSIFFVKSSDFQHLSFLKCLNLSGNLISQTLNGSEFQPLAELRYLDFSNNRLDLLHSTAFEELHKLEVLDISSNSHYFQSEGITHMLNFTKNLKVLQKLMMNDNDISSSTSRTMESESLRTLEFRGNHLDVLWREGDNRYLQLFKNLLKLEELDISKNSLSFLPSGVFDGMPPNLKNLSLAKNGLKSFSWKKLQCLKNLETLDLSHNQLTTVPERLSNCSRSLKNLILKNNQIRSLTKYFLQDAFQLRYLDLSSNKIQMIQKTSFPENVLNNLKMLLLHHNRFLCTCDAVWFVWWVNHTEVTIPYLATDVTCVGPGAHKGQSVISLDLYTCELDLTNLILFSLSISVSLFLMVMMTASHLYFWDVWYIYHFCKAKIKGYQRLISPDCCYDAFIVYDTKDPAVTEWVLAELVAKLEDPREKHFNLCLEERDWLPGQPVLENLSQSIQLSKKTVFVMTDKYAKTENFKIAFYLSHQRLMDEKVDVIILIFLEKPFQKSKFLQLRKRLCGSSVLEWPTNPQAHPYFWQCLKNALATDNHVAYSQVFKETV
The test can be described thus: TLR7 human PBMC cell-based assay (antagonist, GS-986 stimulated cytokine release). To be noted: human PBMCs; TLR7 agonist GS-986 400 nM, 6 hours; cytokines (IL-6 and IFNα) in supernatant; read-out: TLR-7 EC50. The method in brief:
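EC50 derived by sigmoidal fitting of IL-6 and IFNα levels, quantified by electrochemiluminescence in supernatants of human PBMCs given 400 nM GS-986 for 6 h. Cells (100,000/well in RPMI-1640, 10% FBS) had received test antagonist 1 h beforehand, 10 doses in quadruplicate, at 37 °C.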

Test [2] concerns the target T2, TLR8 (Homo sapiens, UniProt Q9NR97).
T2 construct: Human peripheral blood mononuclear cells (PBMCs) consist of lymphocytes, monocytes and dendritic cells that express TLR7, TLR8 and TLR9; endogenous in cells; host or cells: cryopreserved human PBMCs from healthy donors
T2 sequence (Q9NR97 27-1041): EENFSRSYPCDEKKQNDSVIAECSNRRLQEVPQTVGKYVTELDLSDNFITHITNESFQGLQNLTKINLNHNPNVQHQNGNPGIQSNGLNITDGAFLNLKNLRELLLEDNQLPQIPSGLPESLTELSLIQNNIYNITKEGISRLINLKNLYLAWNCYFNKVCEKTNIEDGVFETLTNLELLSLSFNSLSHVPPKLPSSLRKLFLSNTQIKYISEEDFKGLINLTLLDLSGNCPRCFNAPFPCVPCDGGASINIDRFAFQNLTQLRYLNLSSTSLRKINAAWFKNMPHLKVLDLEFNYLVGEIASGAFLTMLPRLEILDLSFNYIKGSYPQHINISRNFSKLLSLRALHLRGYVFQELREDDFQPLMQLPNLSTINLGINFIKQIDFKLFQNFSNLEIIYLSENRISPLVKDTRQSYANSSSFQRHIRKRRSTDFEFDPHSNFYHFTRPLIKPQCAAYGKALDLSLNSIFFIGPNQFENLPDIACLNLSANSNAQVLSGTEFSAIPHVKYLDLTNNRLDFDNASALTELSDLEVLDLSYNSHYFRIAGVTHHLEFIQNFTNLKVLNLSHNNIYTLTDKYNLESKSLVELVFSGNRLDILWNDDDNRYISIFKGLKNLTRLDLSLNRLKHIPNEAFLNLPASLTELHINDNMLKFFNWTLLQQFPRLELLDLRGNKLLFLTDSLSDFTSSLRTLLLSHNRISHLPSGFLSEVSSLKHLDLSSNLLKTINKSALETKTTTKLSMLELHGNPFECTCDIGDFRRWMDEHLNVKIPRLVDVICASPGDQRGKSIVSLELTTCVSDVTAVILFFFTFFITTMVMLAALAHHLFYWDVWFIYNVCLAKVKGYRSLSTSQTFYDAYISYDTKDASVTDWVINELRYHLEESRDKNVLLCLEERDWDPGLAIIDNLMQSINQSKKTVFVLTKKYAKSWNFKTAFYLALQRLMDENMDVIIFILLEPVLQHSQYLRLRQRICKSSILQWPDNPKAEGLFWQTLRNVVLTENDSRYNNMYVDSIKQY
The test can be described thus: TLR8 human PBMC cell-based assay (antagonist, Compound A stimulated cytokine release). To be noted: human PBMCs; TLR8 agonist Compound A 800 nM, 6 hours; cytokines (TNFa and IL 12p40) in supernatant; read-out: TLR-8 EC50. The method in brief:
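Cryopreserved donor PBMCs (100,000/well, RPMI + 10% FBS) were preincubated 1 h with antagonist (10-point dose response, quadruplicate), then stimulated with Compound A (800 nM final) for 6 h at 37 °C. TNFa and IL-12p40 in supernatants were measured by electrochemiluminescence; sigmoidal fits gave EC50.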

The EC50 is the concentration giving half of the maximal effect.

For the compound `Cc1cc(-c2[nH]c3cc(C(=O)N(C)[C@H]4CNC[C@@H](C(F)(F)F)C4)sc3c2C(C)C)cn2ncnc12` [Example 275], the concentration giving a half-maximal response (EC50) in test [1] came out at 9 nM; in test [2] it was 35.6 nM.

For `Cc1cc(-c2[nH]c3cc(-c4ccc5c(c4)CN(CCO)CC5)sc3c2C(C)C)cn2ncnc12` [Example 188], the values for the concentration giving a half-maximal response (EC50) in test [1] and in test [2] were 1.3 nM and 0.3 nM, respectively.

Consider `Cc1c(C(=O)N2CCC[C@@H]3NCC[C@@H]32)sc2c(C(C)C)c(-c3cc(C)c4ncnn4c3)[nH]c12` [Example 243], for which the figures for the half-maximal effective concentration (EC50) in test [1] and in test [2] were 52.4 nM and 82.9 nM, respectively.

On to `Cc1cc(-c2[nH]c3cc(-c4ccc5nc(C6N[C@@H]7CC[C@H]6C7)[nH]c5c4)sc3c2C(C)C)cn2ncnc12` (some centres unmarked) [Example 212], for which the EC50 was 0.2 nM in test [1] and 1.6 nM in test [2].

Turning to `CCc1c(-c2cc(C)c3ncnn3c2)[nH]c2cc(-c3nc4ccc(N5CCNCC5)nc4[nH]3)sc12` [Example 244, 6-ethyl-5-(8-methyl-[1,2,4]triazolo[1,5-a]pyridin-6-yl)-2-(5-(piperazin-1-yl)-311-imidazo[4,5-b]pyridin-2-yl)-4H-thieno[3,2-b]pyrrole], the half-maximal effective concentration (EC50) in test [1] was 333 nM; in test [2], 33.1 nM.

With `Cc1cc(-c2[nH]c3cc(C4CCC5(CC4)CN(CCO)C5)sc3c2C(C)C)cn2ncnc12` [Example 191], the half-maximal effective concentration (EC50) in test [1] was 0.2 nM; in test [2] it was 1 nM.

Consider `Cc1cc(-c2[nH]c3cc(-c4nnc(C5CCNCC5)s4)sc3c2C(C)C)cn2ncnc12` [Example 48, 6-isopropyl-5-(8-methyl-[1,2,4]triazolo[1,5-a]pyridin-6-yl)-2-(5-(piperidin-4-yl)-1,3,4-thiadiazol-2-yl)-4H-thieno[3,2-b]pyrrole], for which the 50% effective concentration (EC50) in test [1] was 1 nM; in test [2] it was 5.4 nM.

For the compound `Cc1cc(-c2[nH]c3cc(C(=O)N(C4CCC4)C4CCNCC4)sc3c2C(C)C)cn2ncnc12` [Example 84], the concentration for a half-maximal effect (EC50) in test [1] stood at 1.1 nM; in test [2], 25.1 nM.

Consider `Cc1cc(-c2[nH]c3cc(C(=O)N(C)C4CCN(CCC(F)(F)F)CC4)sc3c2C(C)C)cn2ncnc12` [Example 269, 6-isopropyl-N-methyl-5-(8-methyl-[1,2,4]triazolo[1,5-a]pyridin-6-yl)-N-[1-(3,3,3-trifluoropropyl)-4-piperidyl]-4H-thieno[3,2-b]pyrrole-2-carboxamide], for which the concentration giving a half-maximal response (EC50) in test [1] was found to be 26.5 nM; in test [2], 14.7 nM.

Consider `Cc1cc(-c2[nH]c3cc([C@@H]4C[C@H]5CC[C@@H](C4)N5)sc3c2C(C)C)cn2ncnc12` [Example 307, 2-((1R,3s,5S)-8-azabicyclo[3.2.1]octan-3-yl)-6-isopropyl-5-(8-methyl-[1,2,4]triazolo[1,5-a]pyridin-6-yl)-4H-thieno[3,2-b]pyrrole], for which the 50% effective concentration (EC50) in test [1] was 0.09 nM; in test [2], 7.49 nM.

For the compound `Cc1cc(-c2[nH]c3cc(C(=O)N4CCNCC4c4ccc(C(F)(F)F)cc4)sc3c2C(C)C)cn2ncnc12` (centres unmarked) [Example 117], the results for the concentration giving a half-maximal response (EC50) in test [1] and in test [2] were 209 nM and 47.8 nM, respectively.

In the case of `Cc1c(-c2[nH]c3cc(C4CCN(CC(N)=O)CC4)sc3c2C(C)C)cn2ncnc2c1C` [Example 279], the results for the EC50 in test [1] and in test [2] were 2.78 nM and 0.78 nM, respectively.

For the compound `Cc1cc(-c2[nH]c3cc(C(=O)N4CCNC[C@@H]4C)sc3c2C(C)C)cn2ncnc12` [Example 149], the EC50 in test [1] was found to be 2.8 nM; in test [2] it was 10.5 nM.

Turning to `Cc1cc(-c2[nH]c3cc(C4CCN(C(=O)C5(N)CCC5)CC4)sc3c2C(C)C)cn2ncnc12` [Example 197], the EC50 amounted to 33.1 nM in test [1] and 79.7 nM in test [2].

Take `Cc1cc(-c2[nH]c3cc(C4CC5CN(CC(N)=O)CC5C4)sc3c2C(C)C)cn2ncnc12` (centres unmarked) [Example 289]: the EC50 in test [1] was determined as 0.19 nM; in test [2], 5.93 nM.

`Cc1cc(-c2[nH]c3cc(C(=O)N(C)C4CCC(N5CC6(C5)CS(=O)(=O)C6)CC4)sc3c2C(C)C)cn2ncnc12` (centres unmarked) [Example 252]: the 50% effective concentration (EC50) was 9.6 nM in test [1] and 11.2 nM in test [2].

For `CO[C@@H]1CCN(C(=O)c2cc3[nH]c(-c4cc(C)nc(C)c4)c(C(C)C)c3s2)C[C@@H]1N` [Example 25], the EC50 in test [1] was found to be 64.4 nM; in test [2], 136 nM.

As to `Cc1cc(-c2[nH]c3cc(C(=O)N4C[C@@H]5C[C@H]4CN5)sc3c2C(C)C)cc(C)n1` [Example 20], the EC50 in test [1] was found to be 223 nM; in test [2], 26.4 nM.

On to `Cc1cc(-c2[nH]c3cc(C(=O)N(C)CCN4CCCC4)sc3c2C(C)C)cn2ncnc12` [Example 99], for which the EC50 worked out at 4.1 nM in test [1] and 11.6 nM in test [2].

Regarding `Cc1cc(-c2[nH]c3cc(-c4ccc5c(c4)CNCC5)sc3c2C(C)C)cn2ncnc12` [Example 211], the 50% effective concentration (EC50) turned out to be 1.9 nM in test [1] and 0.5 nM in test [2].

Turning to `Cc1cc(-c2[nH]c3cc(C(=O)N4CCCC5NCCC54)sc3c2C(C)C)cc(C)n1` (centres unmarked) [Example 28], the EC50 in test [1] was found to be 26 nM; in test [2], 81 nM.

With `Cc1cc(-c2[nH]c3cc(C(=O)N(C)C4CCC(N5CCN(CC(F)F)CC5)CC4)sc3c2C(C)C)cn2ncnc12` (centres unmarked) [Example 249], the EC50 is 3 nM in test [1] and 12 nM in test [2].

Consider `Cc1cc(-c2[nH]c3cc(C(=O)N4CCC5(CCNCC5)C4)sc3c2C(C)C)cn2ncnc12` [Example 120], for which the figures for the concentration giving a half-maximal response (EC50) in test [1] and in test [2] were 13 nM and 19.4 nM, respectively.

As for `Cc1cc(-c2[nH]c3cc(C(=O)N(C)[C@H]4CCN(CC(N)=O)C4)sc3c2C(C)C)cn2ncnc12` [Example 179], the EC50 turned out to be 12.5 nM in test [1] and 33 nM in test [2].

`Cc1c(-c2[nH]c3cc(C(=O)N4CCNCC4)sc3c2C(C)C)cn2ncnc2c1C` [Example 32]: the half-maximal effective concentration (EC50) in test [1] came to 2.1 nM; in test [2] it was 1.2 nM.

For `Cc1cc(-c2[nH]c3cc(C(=O)N(C)C4CCN(CCC#N)CC4)sc3c2C(C)C)cn2ncnc12` [Example 183], the EC50 in test [1] was found to be 17.5 nM; in test [2], 32.4 nM.

For `Cc1cc(-c2[nH]c3cc(C(=O)N(C)[C@H]4CCNC4)sc3c2C(C)C)cc(C)n1` [Example 23], the EC50 in test [1] stood at 19.9 nM; in test [2], 68 nM.

Consider `Cc1cc(-c2[nH]c3cc(C4CCC5(CC4)CCN(CC(N)=O)CC5)sc3c2C(C)C)cn2ncnc12` [Example 290], for which the values for the EC50 in test [1] and in test [2] were 0.43 nM and 17.9 nM, respectively.

The values are drawn from patent US20240217990A1 (Gilead Sciences, Inc., priority 2021, published 2024).
